The test addresses T1, h-11βHSD1 (Homo sapiens, UniProt P28845).
T1 construct: made in house
The test is described as follows: 11βHSD1 enzyme assay (SPA). The class given is biochemical. The following applies: extract of yeast transformed with h-11βHSD1; 120 nM 3H-cortisone, 60 min at 30° C., pH=7.4; read-out: Inhibition of 11βHSD1, h-11βHSD1 IC50 values. As to the method:
3H-cortisone and anti-rabbit Ig coated scintillation proximity assay (SPA) beads were purchased from Amersham Pharmacia Biotech, P-NADPH was from Sigma and rabbit anticortisol antibodies were from Fitzgerald. An extract of yeast transformed with h-11βHSD1 (Hult et al., FEBS Lett., 441, 25 (1998)) was used as the source of enzyme. The test compounds were dissolved in DMSO (10 mM). All dilutions were performed in a buffer containing 50 mM TRIS-HCl (Sigma Chemical Co), 4 mM EDTA (Sigma Chemical Co), 0.1% BSA (Sigma Chemical Co), 0.01% Tween-20 (Sigma Chemical Co) and 0.005% bacitracin (Novo Nordisk A/S), pH=7.4. Optiplate 96 wells plates were supplied by Packard. The amount of 3H-cortisol bound to the SPA beads was measured on TopCount NXT, Packard.
h-11βHSD1, 120 nM 3H-cortisone, 4 mM β3-NADPH, antibody (1:200), serial dilutions of test compound and SPA particles (2 mg/well) were added to the wells. The reaction was initiated by mixing the different components and was allowed to proceed under shaking for 60 min at 30° C. The reaction was stopped be the addition of 10 fold excess of a stopping buffer containing 500 μM carbenoxolone and 1 μM cortisone. Data was analysed using GraphPad Prism software.

T1 sequence (P28845 whole entry): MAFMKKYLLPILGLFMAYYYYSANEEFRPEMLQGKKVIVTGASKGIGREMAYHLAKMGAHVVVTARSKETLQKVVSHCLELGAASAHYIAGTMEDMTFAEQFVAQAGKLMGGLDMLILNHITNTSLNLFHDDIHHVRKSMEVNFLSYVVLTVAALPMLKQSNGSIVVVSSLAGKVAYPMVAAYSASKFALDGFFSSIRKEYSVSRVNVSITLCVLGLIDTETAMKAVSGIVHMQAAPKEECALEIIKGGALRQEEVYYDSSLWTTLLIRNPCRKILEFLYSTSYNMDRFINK

For `CN(Cc1ccc(C(=O)N2CC3(C)CC2CC(C)(C)C3)cc1)C(=O)c1ccc(S(C)(=O)=O)cc1` (stereo not drawn) [Example 1-28, 4-Methanesulfonyl-N-methyl-N-[4-(1,3,3-trimethyl-6-aza-bicyclo[3.2.1]octane-6-carbonyl)-benzyl]-benzamide], the IC50 (as a rule, the concentration at which inhibition is half-maximal) was determined as 0.019 µM. Consider `COC(=O)CN(C)C(=O)N(C)Cc1ccc(C(=O)N2CC3(C)CC2CC(C)(C)C3)cc1` (stereo not drawn) [Example 3-8, {1,3-Dimethyl-3-[4-(1,3,3-trimethyl-6-aza-bicyclo[3.2.1]octane-6-carbonyl)-benzyl]-ureido}-acetic Acid Methyl Ester], for which the IC50 worked out at 0.5 µM.

As for `CC(C)N(Cc1ccc(C(=O)N2CC3(C)CC2CC(C)(C)C3)cc1)S(=O)(=O)C(F)(F)F` (stereo not drawn) [Example 2-5, Trifluoro-N-isopropyl-N-[4-(1,3,3-trimethyl-6-aza-bicyclo[3.2.1]octane-6-carbonyl)-benzyl]-methanesulfonamide], the IC50 is 0.01 µM.
